According to patent US11724999B2, “Inhibitors of RAS-effector protein interactions” (Oxford University Innovation Limited, priority 2018, dated 2023):

Tests used:
[1] = tested on: DLD1 cells (ATCC CCL-221); test: Cell viability assay (CellTiter-Glo), DLD1 cells; format: cell-based; conditions: Homo sapiens, DLD-1 cells, 48 h incubation, second value of the cell, read-out: Cell Viability (μM) DLD-1 (concentration that decreases cell viability by 50%)
Description: (§1) Cells (A549 ATCC CCL-185) are cultured in Dulbecco's Modified Eagle's Medium plus 10% foetal calf serum and 2 mM L-glutamine at 37° C., 5% CO2. Cells are plated onto white clear bottom 96-well plates (5000 cells/well in 200 μl media) and left to adhere overnight at 37° C., 5% CO2. Next day, test compound (1 μl at 200× concentration in 100% DMSO) is added to give final test compound concentration 1× in 0.5% DMSO. After 48 h of incubation at 37° C., 5% CO2, 20 μl CellTiter-Glo reagent (Promega G7572) is added into each well. Plates are incubated at room temperature with shaking for 30 min and then luminescence is read using a PheraStar plate reader. The concentration of compounds that decrease cell viability by 50% is calculated from dose response curves generated using Dotmatics data analysis software.
In the DLD1 cell assay, cells (ATCC CCL-221) are cultured in RPMI-1640 medium plus 10% foetal calf serum and 2 mM L-glutamine at 37° C., 5% CO2.

[2] = biological target: T1, GST-human KRas166 (G12V) GPPNHP (Homo sapiens, UniProt P01116, G12V); test: KRas small-molecule screening by SPR (BIACORE T200); format: binding; conditions: compound at final concentration of 100 uM; immobilised GST-KRAS166 (G12V) GPPNHP, GST reference channel
T1 construct: made in house; host or cells: E. coli C41(DE3)
Method in brief: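 E. coli-expressed GST-KRas166 (G12V) was loaded with GPPNHP and captured on an anti-GST CM5 chip at 10,000–15,000 RU, with GST as the reference channel. Compounds were injected at 100 uM in buffer containing 100 mM NaCl, 5 mM MgCl2 and 5% DMSO, with solvent correction. Binding was measured by Biacore T200 SPR against a theoretical Rmax.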

[3] = tested on: H358 cells (ATCC CRL-5807); test: Cell viability assay (CellTiter-Glo), H358 cells; format: cell-based; conditions: Homo sapiens, NCI-H358, 48 h incubation, first value of the cell, read-out: Cell Viability (μM) H358 (concentration that decreases cell viability by 50%)
Description: as §1
In the H358 cell assay, cells (ATCC CRL-5807) are cultured in RPM-1640 medium plus 10% foetal calf serum and 2 mM L-glutamine at 37° C., 5% CO2.

For CN1CCN(Cc2ccc(C(=O)NC[C@@H]3COc4ccc(OCCc5ccccc5)cc4O3)o2)CC1 [Example 23, 5-(4-Methyl-piperazin-1-ylmethyl)-furan-2-carboxylic acid ((R)-7-phenethyloxy-2,3-dihydro-benzo[1,4]dioxin-2-ylmethyl)-amide], the IC50 [1] was 3.5 µM, the “SPR Response Units” value [2] was 86 Response Units and the IC50 [3] was 35 µM.
With O=C(NCc1ccc(CN2CCNCC2)cc1)C1COc2ccc(OCc3ccccc3)cc2O1 (stereo not drawn) [Example 74, 7-Benzyloxy-2,3-dihydro-benzo[1,4]dioxine-2-carboxylic acid 4-piperazin-1-ylmethyl-benzylamide] the IC50 [1] was 16.7 µM, the “SPR Response Units” value [2] was 115 Response Units and the IC50 [3] was 21.3 µM.
With O=C1CCCN1CC(NC[C@@H]1COc2ccc(OCc3ccccc3)cc2O1)c1ccccc1 (stereo partly drawn) [Example 47, 1-{2-[((R)-7-Benzyloxy-2,3-dihydro-benzo[1,4]dioxin-2-ylmethyl)-amino]-2-phenyl-ethyl}-pyrrolidin-2-one] the IC50 [1] was 15.7 µM, the “SPR Response Units” value [2] was 48 Response Units and the IC50 [3] was 35 µM.
In the case of Cc1cccc(COc2ccc3c(c2)O[C@H](CNC(=O)C2CCN(C)CC2)CO3)c1 [Example 28, 1-Methyl-piperidine-4-carboxylic acid [(R)-7-(3-methyl-benzyloxy)-2,3-dihydro-benzo[1,4]dioxin-2-ylmethyl]-amide], the IC50 [1] is reported as 8.2 µM, the “SPR Response Units” value [2] is reported as 39 Response Units and the IC50 [3] is reported as 16.6 µM.
In the case of CN1CCC(C(=O)NC[C@@H]2COc3ccc(OCc4ccc(F)cc4)cc3O2)CC1 [Example 31, 1-Methyl-piperidine-4-carboxylic acid [(R)-7-(4-fluoro-benzyloxy)-2,3-dihydro-benzo[1,4]dioxin-2-ylmethyl]-amide], the IC50 [1] is reported as 9.6 µM, the “SPR Response Units” value [2] is reported as 28 Response Units and the IC50 [3] is reported as 18.2 µM.
With CN1CCN(Cc2ccc(C(=O)NC[C@@H]3COc4ccc(OCc5ccc(Cl)cc5)cc4O3)o2)CC1 [Example 24, 5-(4-Methyl-piperazin-1-ylmethyl)-furan-2-carboxylic acid [(R)-7-(4-chloro-benzyloxy)-2,3-dihydro-benzo[1,4]dioxin-2-ylmethyl]-amide] the IC50 [1] was 2.5 µM, the “SPR Response Units” value [2] was 226 Response Units and the IC50 [3] was 49 µM.
CN1CCC(C(=O)NC[C@@H]2COc3ccc(OCc4ccccc4)cc3O2)CC1 [Example 1, 1-methyl-piperidine-4-carboxylic acid ((R)-7-benzyloxy-2,3-dihydro-benzo[1,4]dioxin-2-ylmethyl)-amide] was tested, and the IC50 [1] was 13 µM, the “SPR Response Units” value [2] was 48 Response Units and the IC50 [3] was 61 µM.
